Test results as given in PMC6413952, “Discovery of ABBV-4083, a novel analog of Tylosin A that has potent anti-Wolbachia and anti-filarial activity” (PLoS Neglected Tropical Diseases, 2019).
Where two headings read alike, the source gives them in different places.

What was measured:
[1] = tested on: 77 mammalian receptors, ion channels, enzymes and transporters; design: method as in PMID 30867321; details: cited from earlier work
[2] = In vitro high-content steatosis screen; type: cell-based
From the text: (§1) As a preclinical candidate, ABBV-4083 has been evaluated in a variety of in vitro assays assessing preclinical safety. […] In preparation for first-in-human studies, the safety of ABBV-4083 has been extensively evaluated in 28-day GLP general and reproductive toxicity studies. In addition, the synthesis has been adapted to produce GMP quality supplies.

[3] = tested on: Wolbachia pipientis in Aedes albopictus C6/36 (wAlbB) insect cells; experiment: A·WOL Wolbachia-infected Aedes albopictus (C6/36 wAlbB) 7-day cell-based assay, high content imaging
From the text: Compounds were screened for anti-Wolbachia activity in vitro in the A·WOL-validated Wolbachia-infected Aedes albopictus (C6/36 wAlbB) 7-day cell-based assay which utilizes a 384-well format assay with high content imaging (HCI) (Operetta) as described previously.
We began our work by selecting a diverse and representative sample of the AbbVie antibiotics collection (129 compounds) for single-point testing against Wolbachia pipientis in an insect cell line. […] While TylA has a long history of use in multiple animal species, it has never been studied in humans; and its activity against Wolbachia has not previously been reported.

[4] = tested on: gram(+) and gram(-) microorganisms; design: method as in PMID 30867321; details: majority of panel; cited from earlier work
[5] = Cardiovascular effects in dogs; type: in vivo; details: administered to dogs
From the text: as §1

[6] = In vitro phospholipidosis assay; type: cell-based
From the text: as §1

receptors = experiment: Battery of 35 assays assessing general selectivity; type: binding; details: maximum concentration of 10 μM
From the text: as §1

hERG channel = hERG channel (Homo sapiens, UniProt Q12809); experiment: Functional hERG channel activity; type: biochemical; details: maximum concentration of 30 μM
Sequence of hERG channel (Q12809 whole entry): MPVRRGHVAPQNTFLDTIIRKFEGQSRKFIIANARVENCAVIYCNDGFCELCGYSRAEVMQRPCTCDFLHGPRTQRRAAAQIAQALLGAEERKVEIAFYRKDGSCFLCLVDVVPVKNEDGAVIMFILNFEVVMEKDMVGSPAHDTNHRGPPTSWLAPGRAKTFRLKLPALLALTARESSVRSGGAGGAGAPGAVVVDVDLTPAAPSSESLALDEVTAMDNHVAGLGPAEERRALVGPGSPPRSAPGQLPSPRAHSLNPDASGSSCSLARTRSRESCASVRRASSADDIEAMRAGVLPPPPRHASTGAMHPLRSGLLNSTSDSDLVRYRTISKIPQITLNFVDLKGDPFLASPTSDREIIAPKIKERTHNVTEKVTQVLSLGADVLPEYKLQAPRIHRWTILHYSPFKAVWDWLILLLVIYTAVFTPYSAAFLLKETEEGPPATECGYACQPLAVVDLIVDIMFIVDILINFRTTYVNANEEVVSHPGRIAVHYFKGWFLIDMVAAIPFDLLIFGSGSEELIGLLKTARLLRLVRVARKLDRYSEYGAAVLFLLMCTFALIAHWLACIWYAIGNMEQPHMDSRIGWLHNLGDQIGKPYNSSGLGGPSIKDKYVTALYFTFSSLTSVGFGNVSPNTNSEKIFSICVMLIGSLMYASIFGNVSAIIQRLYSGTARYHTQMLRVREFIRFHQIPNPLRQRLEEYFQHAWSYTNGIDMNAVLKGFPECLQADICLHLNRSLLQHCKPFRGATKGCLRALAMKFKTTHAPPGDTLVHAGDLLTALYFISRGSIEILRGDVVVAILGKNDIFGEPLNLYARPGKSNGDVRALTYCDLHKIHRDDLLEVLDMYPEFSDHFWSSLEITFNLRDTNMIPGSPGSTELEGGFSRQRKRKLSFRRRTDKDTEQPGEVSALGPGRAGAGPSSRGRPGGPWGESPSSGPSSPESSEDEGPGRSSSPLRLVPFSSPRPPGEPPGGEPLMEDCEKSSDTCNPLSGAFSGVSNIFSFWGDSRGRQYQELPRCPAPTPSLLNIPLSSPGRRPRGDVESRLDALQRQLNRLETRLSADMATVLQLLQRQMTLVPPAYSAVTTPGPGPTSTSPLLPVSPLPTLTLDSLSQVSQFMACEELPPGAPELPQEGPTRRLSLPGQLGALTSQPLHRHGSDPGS
From the text: as §1

[7] = tested on: Litomosoides, Brugia and Onchocerca; design: method as in PMID 30867321; details: cited from earlier work; for anti-Wolbachia efficacy compared with doxycycline: shorter durations of treatment
[8] = tested on: Litomosoides sigmodontis / Wolbachia; experiment: Litomosoides sigmodontis microfilariae-positive jird model; type: in vivo, jirds (Meriones unguiculatus)
Experimental: As described previously, female BALB/c mice or female jirds were infected at 6–8 weeks of age with L. sigmodontis larvae through the bites of Ornithonyssus bacoti mites.
Starting at 14 weeks post infection, microfilariae-positive jirds (n = 7 per group) were dosed PO with ABBV-4083 (150 mg/kg QD) dissolved in 0.5% HPMC/0.02% Tween-80 or vehicle using a volume of 5ml/kg. Microfilariae numbers were assessed through visual inspection of blood samples collected from the saphenous vein at weekly intervals post-dosing. For this, 10 μl of peripheral blood were diluted in 300 μl of Hinkelmann solution (0.5% Eosin Y, 0.5% Phenol, 0.185% Formaldehyde in aqua dest). After 5 minutes of centrifugation at 400g, the supernatant was discarded and the pellet transferred for microscopic quantification of the microfilariae. At 16 weeks post-treatment, jirds were euthanized by an overdose of isoflurane; worms were recovered from the pleural cavity and counted. Remaining intact female adult worms were used to assess embryogenesis and the Wolbachia load. For the latter, genomic DNA (gDNA) was extracted from individual female adult worms and quantification of the Wolbachia ftsZ (wLs-ftsZ) and L. sigmodontis β-actin (Ls-act) gene copy numbers was performed by quantitative real-time PCR (qPCR).
For embryograms, remaining intact female adult worms were individually homogenized in 20% Hinkelmann/80% PBS solution, diluted 1:10 in PBS and quantified by microscopy. Embryonal stages were differentiated as egg, morulae, pretzel and stretched microfilariae.

[9] = In vitro genotoxicity screening assays; type: cell-based
From the text: as §1

[10] = Rat oral pharmacokinetic study (plasma AUC, C8hr); type: in vivo, Sprague-Dawley rats; details: for AUC*/EC50: potency-weighted AUC
Experimental: PO doses were administrated by oral gavage, IP doses by intraperitoneal injection to BALB/c mice or Sprague-Dawley rats (Charles River Laboratories, USA). Serial blood samples collected into EDTA anticoagulant for plasma concentration analysis were obtained from each animal after dosing. EDTA preserved plasma samples were extracted by protein precipitation with acetonitrile fortified with internal standards. The supernatant was injected into an HPLC-MS/MS system for separation and quantitation. Detection was accomplished using a triple quadrupole mass spectrometer operated either in electrospray or atmospheric chemical ionization (APCI) mode. The area under the plasma concentration-time curve (AUC) was calculated using the linear trapezoidal rule.

## CC[C@H]1OC(=O)C[C@@H](O)[C@H](C)[C@@H](O[C@@H]2O[C@H](C)[C@@H](O[C@H]3C[C@@](C)(O)[C@@H](OCc4ccc(F)cc4)[C@H](C)O3)[C@H](N(C)C)[C@H]2O)[C@@H](CC=O)C[C@@H](C)C(=O)/C=C/C(C)=C/[C@@H]1CO[C@@H]1O[C@H](C)[C@@H](O)[C@@H](OC)[C@H]1OC [Compound 5d]
[1]
  interactions across 77 assays: significant interaction was only observed in two assays
[2]
  steatosis: did not induce steatosis
[3]; C6/36, Wolbachia-infected insect cells, geometric mean (N), each N a duplicate measurement
  EC50: 0.019 nM
[3]; EC50 lower than parent TylA
  potency improvement (EC50) over TylA: 1,500 fold
[4]
  change in susceptibility compared with TylA: little to no change in susceptibility
[5]
  cardiovascular effects: did not produce significant cardiovascular effects
[6]
  phospholipidosis: No potential to induce phospholipidosis
receptors
  interactions with receptors in 35 selectivity assays: no significant interactions with any receptors
hERG channel
  inhibition of functional hERG channel activity: did not inhibit
[7]
  direct microfilaricidal activity: not directly microfilaricidal
  anti-Wolbachia efficacy compared with doxycycline: superior to doxycycline
[7]; listed as ABBV-4083
  anti-Wolbachia efficacy compared with doxycycline: equals or exceeds the efficacy of doxycycline
[8]; 150mg/kg 14days QD, Fig 3A
  Wolbachia depletion: -99,91%
[8]; 150 mg/kg PO QD 14 days, 16 weeks post treatment start
  embryogenesis (embryograms of female worms): near-complete loss of all embryonic forms including eggs
[8]; 150 mg/kg PO QD 14 days, from 12 weeks pti until 16 weeks pti
  circulating microfilariae: completely cleared
[8]; 150 mg/kg PO once daily for 14 days, 16 weeks post-treatment-initiation
  reduction of Wolbachia levels in recovered female adult worms: > 99.9%
[9]
  genotoxicity: neither mutagenic nor clastogenic
[10]; PO rats, C(8hr)/dose
  C*8hr: 0.75 ng/mL per mg/kg
[10]; PO, Sprague-Dawley rats, AUC* = AUC/dose
  AUC* parent: 16 ng-hr/ml per mg/kg
[10]; PO, Sprague-Dawley rats, primary metabolite TylA, AUC/dose
  AUC* TylA (metabolite): <0.6 ng-hr/ml per mg/kg
[10]; oral dosing
  potency-weighted 8-hr drug level (C8hr/dose/EC50) relative to TylA: 2,000 fold
  potency-weighted AUC (AUC*/EC50) relative to TylA: 2,500 fold
[10]; oral dosing, rats
  improvement in plasma drug levels (AUC) over TylA: 1.7 fold
[10]; oral pharmacokinetic study
  metabolic stability of substituent / species observed in plasma: only parent drug is observed in the plasma
[10]; potency-weighted 8-hr drug level, PO rats
  C*8hr/ EC50: 39.5 ng/ml/nM per mg/kg
[10]; PO rats
  AUC*/EC50: 842 ng-hr/ml/nM per mg/kg
[10]; rat
  AUC*/EC50: 842,000 ng-hr/ml/uM per mg/kg
